# According to PubChem BioAssay (NCI):
#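 Five concentrations, 48 hours, 96-well plates. Here, GI50 denotes the concentration required for 50% inhibition of growth. Definition used: TGI = concentration required for complete inhibition of growth.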
# Assays:
# Assay in all cases: growth of human tumour cells (NCI), 48 h
# 786-0 renal = tested on: 786-0 renal
# A498 renal = tested on: A498 renal
# A549 NSCLC = tested on: A549 NSCLC
# ACHN renal = tested on: ACHN renal
# BT-549 breast = tested on: BT-549 breast
# CAKI-1 renal = tested on: CAKI-1 renal
# CCRF-CEM leukemia = tested on: CCRF-CEM leukemia
# COLO 205 colon = tested on: COLO 205 colon
# DU-145 prostate = tested on: DU-145 prostate
# EKVX NSCLC = tested on: EKVX NSCLC
# HCC-2998 colon = tested on: HCC-2998 colon
# HCT-116 colon = tested on: HCT-116 colon
# HCT-15 colon = tested on: HCT-15 colon
# HOP-62 NSCLC = tested on: HOP-62 NSCLC
# HOP-92 NSCLC = tested on: HOP-92 NSCLC
# HS 578T breast = tested on: HS 578T breast
# HT29 colon = tested on: HT29 colon
# IGROV1 ovarian = tested on: IGROV1 ovarian
# K-562 leukemia = tested on: K-562 leukemia
# KM12 colon = tested on: KM12 colon
# LOX IMVI melanoma = tested on: LOX IMVI melanoma
# M14 melanoma = tested on: M14 melanoma
# MCF7 breast = tested on: MCF7 breast
# MDA-MB-231 breast = tested on: MDA-MB-231 breast
# MDA-MB-435 = tested on: MDA-MB-435
# MOLT-4 leukemia = tested on: MOLT-4 leukemia
# NCI-H226 lung = tested on: NCI-H226 lung
# NCI-H23 lung = tested on: NCI-H23 lung
# NCI-H460 lung = tested on: NCI-H460 lung
# NCI-H522 lung = tested on: NCI-H522 lung
# NCI/ADR-RES ovarian = tested on: NCI/ADR-RES ovarian
# OVCAR-3 ovarian = tested on: OVCAR-3 ovarian
# OVCAR-4 ovarian = tested on: OVCAR-4 ovarian
# OVCAR-5 ovarian = tested on: OVCAR-5 ovarian
# OVCAR-8 ovarian = tested on: OVCAR-8 ovarian
# PC-3 prostate = tested on: PC-3 prostate
# RPMI-8226 leukemia = tested on: RPMI-8226 leukemia
# RXF 393 renal = tested on: RXF 393 renal
# SF-268 CNS = tested on: SF-268 CNS
# SF-295 CNS = tested on: SF-295 CNS
# SF-539 CNS = tested on: SF-539 CNS
# SK-MEL-2 melanoma = tested on: SK-MEL-2 melanoma
# SK-MEL-28 melanoma = tested on: SK-MEL-28 melanoma
# SK-MEL-5 melanoma = tested on: SK-MEL-5 melanoma
# SK-OV-3 ovarian = tested on: SK-OV-3 ovarian
# SN12C renal = tested on: SN12C renal
# SNB-19 CNS = tested on: SNB-19 CNS
# SNB-75 CNS = tested on: SNB-75 CNS
# SW-620 colon = tested on: SW-620 colon
# TK-10 renal = tested on: TK-10 renal
# U251 CNS = tested on: U251 CNS
# UACC-257 melanoma = tested on: UACC-257 melanoma
# UACC-62 melanoma = tested on: UACC-62 melanoma
# UO-31 renal = tested on: UO-31 renal
# HL-60(TB) leukemia = tested on: HL-60(TB) leukemia
# SR leukemia = tested on: SR leukemia
# T-47D breast = tested on: T-47D breast
# MALME-3M melanoma = tested on: MALME-3M melanoma
compound,measurement,setting,value
ClCc1ccccc1Cn1cnc2ncnc(Cl)c21,GI50,786-0 renal,4.02 µM
same,TGI,786-0 renal,12.8 µM
same,GI50,A498 renal,18.6 µM
same,TGI,A498 renal,32.8 µM
same,GI50,A549 NSCLC,4.44 µM
same,TGI,A549 NSCLC,23.9 µM
same,GI50,ACHN renal,2 µM
same,TGI,ACHN renal,4.27 µM
same,GI50,BT-549 breast,2.45 µM
same,TGI,BT-549 breast,6.09 µM
same,GI50,CAKI-1 renal,2.36 µM
same,TGI,CAKI-1 renal,4.21 µM
same,GI50,CCRF-CEM leukemia,1.45 µM
same,TGI,CCRF-CEM leukemia,3.53 µM
same,GI50,COLO 205 colon,4.33 µM
same,TGI,COLO 205 colon,> 100 µM
same,GI50,DU-145 prostate,2.93 µM
same,TGI,DU-145 prostate,10.1 µM
same,GI50,EKVX NSCLC,5.33 µM
same,TGI,EKVX NSCLC,17.6 µM
same,GI50,HCC-2998 colon,2.26 µM
same,TGI,HCC-2998 colon,4.22 µM
same,GI50,HCT-116 colon,1.5 µM
same,TGI,HCT-116 colon,4.11 µM
same,GI50,HCT-15 colon,1.36 µM
same,TGI,HCT-15 colon,2.91 µM
same,GI50,HOP-62 NSCLC,11.1 µM
same,TGI,HOP-62 NSCLC,29 µM
same,GI50,HOP-92 NSCLC,4.38 µM
same,TGI,HOP-92 NSCLC,12.8 µM
same,GI50,HS 578T breast,2.29 µM
same,TGI,HS 578T breast,5.96 µM
same,GI50,HT29 colon,3.93 µM
same,TGI,HT29 colon,> 100 µM
same,GI50,IGROV1 ovarian,4.28 µM
same,TGI,IGROV1 ovarian,22.7 µM
same,GI50,K-562 leukemia,2.23 µM
same,TGI,K-562 leukemia,5.86 µM
same,GI50,KM12 colon,3.6 µM
same,TGI,KM12 colon,11.3 µM
same,GI50,LOX IMVI melanoma,1.34 µM
same,TGI,LOX IMVI melanoma,3.07 µM
same,GI50,M14 melanoma,1.92 µM
same,TGI,M14 melanoma,5.17 µM
same,GI50,MCF7 breast,3.64 µM
same,TGI,MCF7 breast,> 100 µM
same,GI50,MDA-MB-231 breast,2.78 µM
same,TGI,MDA-MB-231 breast,6.97 µM
same,GI50,MDA-MB-435,1.95 µM
same,TGI,MDA-MB-435,3.84 µM
same,GI50,MOLT-4 leukemia,1.65 µM
same,TGI,MOLT-4 leukemia,4.24 µM
same,GI50,NCI-H226 lung,3.35 µM
same,TGI,NCI-H226 lung,7.89 µM
same,GI50,NCI-H23 lung,4.97 µM
same,TGI,NCI-H23 lung,17.6 µM
same,GI50,NCI-H460 lung,13.5 µM
same,TGI,NCI-H460 lung,60.9 µM
same,GI50,NCI-H522 lung,2.83 µM
same,TGI,NCI-H522 lung,7.64 µM
same,GI50,NCI/ADR-RES ovarian,2.1 µM
same,TGI,NCI/ADR-RES ovarian,4.47 µM
same,GI50,OVCAR-3 ovarian,2.06 µM
same,TGI,OVCAR-3 ovarian,4.16 µM
same,GI50,OVCAR-4 ovarian,4.94 µM
same,TGI,OVCAR-4 ovarian,20.5 µM
same,GI50,OVCAR-5 ovarian,2.84 µM
same,TGI,OVCAR-5 ovarian,7.3 µM
same,GI50,OVCAR-8 ovarian,2.74 µM
same,TGI,OVCAR-8 ovarian,8.74 µM
same,GI50,PC-3 prostate,4.51 µM
same,TGI,PC-3 prostate,19.2 µM
same,GI50,RPMI-8226 leukemia,2.09 µM
same,TGI,RPMI-8226 leukemia,5.45 µM
same,GI50,RXF 393 renal,1.65 µM
same,TGI,RXF 393 renal,6.5 µM
same,GI50,SF-268 CNS,4.76 µM
same,TGI,SF-268 CNS,24.4 µM
same,GI50,SF-295 CNS,7.93 µM
same,TGI,SF-295 CNS,20.5 µM
same,GI50,SF-539 CNS,2.35 µM
same,TGI,SF-539 CNS,4.98 µM
same,GI50,SK-MEL-2 melanoma,4.2 µM
same,TGI,SK-MEL-2 melanoma,19.7 µM
same,GI50,SK-MEL-28 melanoma,4.47 µM
same,TGI,SK-MEL-28 melanoma,18.7 µM
same,GI50,SK-MEL-5 melanoma,1.37 µM
same,TGI,SK-MEL-5 melanoma,4.12 µM
same,GI50,SK-OV-3 ovarian,7.57 µM
same,TGI,SK-OV-3 ovarian,26.8 µM
same,GI50,SN12C renal,2.96 µM
same,TGI,SN12C renal,8.5 µM
same,GI50,SNB-19 CNS,7.3 µM
same,TGI,SNB-19 CNS,> 100 µM
same,GI50,SNB-75 CNS,11.3 µM
same,TGI,SNB-75 CNS,26.6 µM
same,GI50,SW-620 colon,2.24 µM
same,TGI,SW-620 colon,4.72 µM
same,GI50,TK-10 renal,3.5 µM
same,TGI,TK-10 renal,9.57 µM
same,GI50,U251 CNS,1.92 µM
same,TGI,U251 CNS,4.4 µM
same,GI50,UACC-257 melanoma,5.88 µM
same,TGI,UACC-257 melanoma,22.1 µM
same,GI50,UACC-62 melanoma,1.88 µM
same,TGI,UACC-62 melanoma,5.12 µM
same,GI50,UO-31 renal,3.22 µM
same,TGI,UO-31 renal,10.7 µM
CC(=O)O[C@H]1CC2C(C3CCC(C(C)CCC(N)=O)[C@]31C)[C@H](OC(C)=O)C[C@@H]1CC3(CC[C@]21C)OOC1(CC[C@]2(C)C4C[C@H](OC(C)=O)[C@]5(C)C(C(C)CCC(N)=O)CCC5C4[C@H](OC(C)=O)C[C@@H]2C1)OO3 (stereo not given in full),TGI,COLO 205 colon,2.84 µM
same,TGI,DU-145 prostate,3.49 µM
same,TGI,HL-60(TB) leukemia,4.19 µM
same,TGI,HOP-62 NSCLC,3.86 µM
same,TGI,HS 578T breast,4.55 µM
same,TGI,IGROV1 ovarian,3.28 µM
same,TGI,K-562 leukemia,> 100 µM
same,TGI,MCF7 breast,4.08 µM
same,TGI,NCI-H226 lung,2.79 µM
same,TGI,OVCAR-3 ovarian,2.85 µM
same,TGI,OVCAR-8 ovarian,3.66 µM
same,TGI,RPMI-8226 leukemia,> 100 µM
same,TGI,RXF 393 renal,3.34 µM
same,TGI,SF-268 CNS,3.37 µM
same,TGI,SF-295 CNS,3.2 µM
same,TGI,SK-OV-3 ovarian,3.95 µM
same,TGI,SW-620 colon,> 100 µM
same,TGI,UO-31 renal,2.36 µM
CC1=CCC[C@H]2[C@](C)(CC3=CC(=O)C(SCC(C)C)=CC3=O)[C@@H](C)CC[C@]12C,TGI,786-0 renal,27.2 µM
same,TGI,A498 renal,33.2 µM
same,TGI,A549 NSCLC,29.9 µM
same,TGI,ACHN renal,29.7 µM
same,TGI,BT-549 breast,35.8 µM
same,TGI,CAKI-1 renal,16.7 µM
same,TGI,CCRF-CEM leukemia,3.72 µM
same,TGI,COLO 205 colon,36.6 µM
same,TGI,DU-145 prostate,30.9 µM
same,TGI,EKVX NSCLC,31 µM
same,TGI,HCC-2998 colon,31.5 µM
same,TGI,HCT-116 colon,24.8 µM
same,TGI,HCT-15 colon,31.8 µM
same,TGI,HOP-62 NSCLC,31 µM
same,TGI,HOP-92 NSCLC,17.9 µM
same,TGI,HT29 colon,29.9 µM
same,TGI,IGROV1 ovarian,22.9 µM
same,TGI,K-562 leukemia,30.8 µM
same,TGI,KM12 colon,28 µM
same,TGI,LOX IMVI melanoma,24.6 µM
same,TGI,M14 melanoma,34.7 µM
same,TGI,MCF7 breast,37.7 µM
same,TGI,MDA-MB-231 breast,> 64 µM
same,TGI,MDA-MB-435,32.5 µM
same,TGI,MOLT-4 leukemia,6.19 µM
same,TGI,NCI-H226 lung,28.9 µM
same,TGI,NCI-H23 lung,25.5 µM
same,TGI,NCI-H460 lung,31.5 µM
same,TGI,NCI/ADR-RES ovarian,38.8 µM
same,TGI,OVCAR-3 ovarian,42.1 µM
same,TGI,OVCAR-4 ovarian,31.8 µM
same,TGI,OVCAR-5 ovarian,40.9 µM
same,TGI,OVCAR-8 ovarian,26.1 µM
same,TGI,PC-3 prostate,30.9 µM
same,TGI,RPMI-8226 leukemia,14.3 µM
same,TGI,RXF 393 renal,26.1 µM
same,TGI,SF-295 CNS,34.6 µM
same,TGI,SF-539 CNS,33.2 µM
same,TGI,SK-MEL-2 melanoma,31 µM
same,TGI,SK-MEL-28 melanoma,32.5 µM
same,TGI,SK-MEL-5 melanoma,31.5 µM
same,TGI,SK-OV-3 ovarian,35.1 µM
same,TGI,SN12C renal,> 57.5 µM
same,TGI,SNB-19 CNS,34.6 µM
same,TGI,SNB-75 CNS,23.8 µM
same,TGI,SR leukemia,59 µM
same,TGI,SW-620 colon,51.7 µM
same,TGI,T-47D breast,12.9 µM
same,TGI,TK-10 renal,31.3 µM
same,TGI,U251 CNS,42.3 µM
same,TGI,UACC-257 melanoma,37.8 µM
same,TGI,UACC-62 melanoma,28.8 µM
same,TGI,UO-31 renal,25.5 µM
CC1(C)COC(c2ccc(CC(Cc3ccc(C4(C(C)(C)C)OCC(C)(C)CO4)cc3)C(=O)O)cc2)(C(C)(C)C)OC1,GI50,A549 NSCLC,2.06 µM
same,TGI,A549 NSCLC,> 100 µM
same,GI50,ACHN renal,2.8 µM
same,TGI,ACHN renal,> 100 µM
same,GI50,M14 melanoma,> 100 µM
same,TGI,M14 melanoma,> 100 µM
same,GI50,MALME-3M melanoma,> 100 µM
same,TGI,MALME-3M melanoma,> 100 µM
same,GI50,RXF 393 renal,2.86 µM
same,TGI,RXF 393 renal,> 100 µM
same,GI50,SK-MEL-28 melanoma,> 100 µM
same,TGI,SK-MEL-28 melanoma,> 100 µM
same,GI50,SNB-19 CNS,4.14 µM
same,TGI,SNB-19 CNS,> 100 µM
same,GI50,U251 CNS,3.03 µM
same,TGI,U251 CNS,> 100 µM
